In publication PMC6742966, “The Synergism of the Small Molecule ENOblock and Fluconazole Against Fluconazole-Resistant Candida albicans” (Frontiers in Microbiology, 2019):

Target: T1, C. albicans enolase 1 (rCaEno1) (Candida albicans, UniProt P30575)
T1 construct: gene ENO1; full-length, C-terminal His6 tag
Test: SPR (Biacore T200, immobilized rCaEno1, steady-state affinity); also inhibits transglutaminase activity of purified rCaEno1, IC50 about […], with no significant effect on enolase activity
Format: binding

T1 sequence (P30575 whole entry): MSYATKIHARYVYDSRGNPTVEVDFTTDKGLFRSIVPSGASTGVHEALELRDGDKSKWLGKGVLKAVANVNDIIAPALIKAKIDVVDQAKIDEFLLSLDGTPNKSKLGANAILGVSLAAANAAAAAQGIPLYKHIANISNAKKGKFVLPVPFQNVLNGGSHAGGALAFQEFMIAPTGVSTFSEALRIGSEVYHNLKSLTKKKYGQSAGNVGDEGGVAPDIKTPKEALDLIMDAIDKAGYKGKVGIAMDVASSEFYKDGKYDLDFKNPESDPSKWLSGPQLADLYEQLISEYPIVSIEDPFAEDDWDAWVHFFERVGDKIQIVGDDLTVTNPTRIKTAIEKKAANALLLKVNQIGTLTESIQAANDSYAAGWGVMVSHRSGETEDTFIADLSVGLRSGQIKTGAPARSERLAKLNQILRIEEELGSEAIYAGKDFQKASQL

In the case of `NCCOCCOCCNC(=O)Cc1ccc(Nc2nc(NCc3ccc(F)cc3)nc(NCC3CCCCC3)n2)cc1` [ENOblock], the Kd is reported as roughly 0.3 µM.
